Values joined by “and” are separate entries in the source; they are usually repeats but may differ in a detail not shown here. Identical values can stand only once. Like-named read-outs stand apart in the source and are kept apart here. Marks after values point to notes of the source that are not given here.
How the values were obtained:
[1] = tested on: HFGR-I P. falciparum (elevated proline homeostasis and PfcProRS^L482H); assay: P. falciparum ABS growth assay, SYBR Green, 72 h, HFGR-I parasites; assay type: cell-based, Plasmodium falciparum
Outline: (§1)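 SYBR Green 1 fluorescence after 72 h quantified growth of erythrocytic-stage Dd2 lines seeded at 1% parasitemia and 1% hematocrit. Compounds were tested in triplicate dose-response format in RPMI with 0.5% Albumax, referenced to 10 μM dihydroartemisinin and untreated wells.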

[2] = tested on: halofuginone-induced P. falciparum (elevated proline homeostasis); assay: P. falciparum ABS growth assay, SYBR Green, 72 h, halofuginone-induced parasites; assay type: cell-based, Plasmodium falciparum
Outline: as §1

PfcProRS = biological target: T1, PfcProRS (Plasmodium falciparum, UniProt Q8I5R7); assay type: binding; conditions: for Normalized response, dose-response replicates (SI Fig 14): replicates 1-3, listed as MAT334 (29)
T1 construct: made in house; host or cells: E. coli SoluBL-21

HsProRS = HsProRS (Homo sapiens, UniProt P07814); assay: TR-FRET ligand displacement assay with tracer MAT379 (CoraFluor-1-Halo and anti-His6 antibody formats); assay type: binding; parameters: made in house; host or cells: E. coli SoluBL-21; conditions: 250 nM MAT379
P. falciparum Dd2-2D4 = assay: P. falciparum asexual blood stage (ABS) growth assay, SYBR Green, 72 h, wild-type parasites; assay type: cell-based, Plasmodium falciparum
[3] = 10 μM, compound had <50% inhibition

T1 sequence (Q8I5R7 249-746): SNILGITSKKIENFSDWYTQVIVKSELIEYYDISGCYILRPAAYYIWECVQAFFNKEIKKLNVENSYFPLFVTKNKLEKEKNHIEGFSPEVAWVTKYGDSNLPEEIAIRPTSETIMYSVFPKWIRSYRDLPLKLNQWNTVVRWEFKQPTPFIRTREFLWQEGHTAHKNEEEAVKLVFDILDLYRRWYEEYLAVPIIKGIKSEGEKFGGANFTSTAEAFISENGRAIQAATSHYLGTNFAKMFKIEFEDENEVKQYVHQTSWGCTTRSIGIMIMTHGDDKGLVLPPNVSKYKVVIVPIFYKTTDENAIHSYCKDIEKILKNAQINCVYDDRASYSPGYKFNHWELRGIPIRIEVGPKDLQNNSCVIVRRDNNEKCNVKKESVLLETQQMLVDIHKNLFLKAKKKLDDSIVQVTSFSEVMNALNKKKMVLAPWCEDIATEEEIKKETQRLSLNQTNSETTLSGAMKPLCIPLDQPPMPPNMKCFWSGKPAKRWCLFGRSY
Chain of HsProRS (P07814 996-1512): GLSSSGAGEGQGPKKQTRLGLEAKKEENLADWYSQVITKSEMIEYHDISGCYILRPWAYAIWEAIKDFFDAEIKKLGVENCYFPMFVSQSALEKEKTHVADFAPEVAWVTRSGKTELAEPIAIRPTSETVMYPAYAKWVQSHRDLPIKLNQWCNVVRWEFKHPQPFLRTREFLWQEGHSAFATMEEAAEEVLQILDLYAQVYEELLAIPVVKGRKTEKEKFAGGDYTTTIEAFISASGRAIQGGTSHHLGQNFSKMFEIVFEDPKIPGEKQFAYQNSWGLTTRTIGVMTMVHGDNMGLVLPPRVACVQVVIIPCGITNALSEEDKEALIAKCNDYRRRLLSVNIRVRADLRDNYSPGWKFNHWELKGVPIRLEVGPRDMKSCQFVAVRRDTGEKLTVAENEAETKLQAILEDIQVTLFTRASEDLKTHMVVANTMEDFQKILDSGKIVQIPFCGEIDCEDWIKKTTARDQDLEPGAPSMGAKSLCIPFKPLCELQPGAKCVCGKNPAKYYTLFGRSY

For `O=C(NC1Cc2ccccc2C1)c1nccnc1NC(=O)N1CCC(NC(=O)[C@@H]2CCCN2)CC1` [MAT334], the “percent growth at 10 μM, Dd2 HFGR-I” value [1, 3] was 66%^b, the “% signal at 10 μM, HFGR1” value ([1]; HFGR1, 10 μM) was 66.0% and the EC50 ([1]; Plasmodium falciparum, DD2, HFGR1, bound given in μM, read-out: Dd2 EC50 HFGR1, bound) was > 10 µM. For the same compound, the “percent growth at 10 μM, Dd2 Halofuginone-induced” value [2, 3] was 59%^b, the EC50 ([2]; Plasmodium falciparum, DD2, halofuginone-induced, bound given in μM, read-out: Dd2 EC50 halofuginone-induced, bound) was > 10 µM and the “% signal at 10 μM, halofuginone-induced” value ([2]; halofuginone-induced, 10 μM) was 58.7%. The “fold decreased activity in halofuginone-induced and HFGR-I parasites” value ([2]; vs wild-type Dd2-2D4) was 20-to-40 fold, the “Normalized response, dose-response replicates (SI Fig 14)” value (“Normalized response” below) (PfcProRS; Log[inhibitor] (M) -5.000) was 2.08E-01 and 3.63E-01 and 3.19E-01 and the “Normalized response” value (PfcProRS; Log[inhibitor] (M) -5.301) was 5.18E-01 and 3.74E-01 and 4.21E-01. The “Normalized response” value (PfcProRS; Log[inhibitor] (M) -5.601) was 6.67E-01 and 7.40E-01 and 6.08E-01, the “Normalized response” value (PfcProRS; Log[inhibitor] (M) -5.904) was 7.68E-01 and 7.75E-01 and 6.45E-01 and the “Normalized response” value (PfcProRS; Log[inhibitor] (M) -6.208) was 8.81E-01 and 8.94E-01 and 8.19E-01. For the same compound, the “Normalized response” value (PfcProRS; Log[inhibitor] (M) -6.509) was 8.78E-01 and 9.77E-01 and 9.06E-01, the “Normalized response” value (PfcProRS; Log[inhibitor] (M) -6.796) was 9.44E-01 and 9.68E-01 and 8.61E-01 and the “Normalized response” value (PfcProRS; Log[inhibitor] (M) -7.108) was 1.02E+00 and 1.01E+00 and 1.00E+00. The “Normalized response” value (PfcProRS; Log[inhibitor] (M) -7.409) was 9.75E-01 and 1.05E+00 and 9.17E-01, the “Normalized response” value (PfcProRS; Log[inhibitor] (M) -7.710) was 9.99E-01 and 1.04E+00 and 9.29E-01 and the “Normalized response” value (PfcProRS; Log[inhibitor] (M) -8.000) was 9.48E-01 and 9.82E-01 and 1.03E+00. For the same compound, the “Normalized response” value (PfcProRS; Log[inhibitor] (M) -8.301) was 1.01E+00 and 1.09E+00 and 9.01E-01, the “Normalized response” value (PfcProRS; Log[inhibitor] (M) -8.602) was 8.97E-01 (2×) and 1.09E+00 and the “Normalized response” value (PfcProRS; Log[inhibitor] (M) -9.000) was 9.02E-01 and 9.67E-01 and 1.03E+00. The “Normalized response” value (PfcProRS; Log[inhibitor] (M) -9.301) was 8.06E-01 and 9.62E-01 and 9.06E-01, the “PfcProRS -- best Kd” value (PfcProRS; SI Fig 16a, values on -log scale) was 6.180 and the Kd (HsProRS; HsProRS (KD [nM]) + proline, 100 μM proline) was 2130 nM. For the same compound, the Kd (HsProRS; HsProRS (KD [nM]) −, absence of substrates) was 2110 nM, the “percent growth at 10 μM, Dd2 wt” value (P. falciparum Dd2-2D4; [3]) was 76%^b and the EC50 (P. falciparum Dd2-2D4; Plasmodium falciparum, wildtype (Dd2-2D4), bound given in μM, read-out: Dd2 EC50 wildtype (Dd2-2D4), bound) was > 10 µM. The “% signal at 10 μM, wildtype (Dd2-2D4)” value (P. falciparum Dd2-2D4; wildtype (Dd2-2D4), 10 μM) was 75.7%.

Source: paper PMC9403976, “Elucidating the path to Plasmodium prolyl-tRNA synthetase inhibitors that overcome halofuginone resistance” (Nature Communications, 2022)
